# Data as given in patent publication US20060148908A1, “Supressant of toxicity induced by cancer chemotherapeutic agent and composition of cancer chemotherapeutic agent containing the same” (priority 2003, published 2006).
# “Also recorded” adds a separate entry of the source.
# Legend:
# S100A9 = assay: DDRT-PCR and semiquantitative RT-PCR of liver, S100A9 mRNA expression; format: in vivo, mice
# AP-1 = tested on: AP-1
# Protocol: (§1) The density of band was measured by RFLPscan software.
# (§2) The kidney and spleen were separated and weighed, respectively.
# (§3) EMSA (electrophoretic mobility shift assay) was performed to evaluate the xanthorrhizol's effects on NF-κB and AP-1. […] After that, powdered liver tissues were homogenized in 500 μl of cool hypotonic buffer [10 mM HEPES (pH 7.8), 10 mM KCl, 1.5 mM MgCl2, 0.5 mM DIT, 0.2 mM PMSF]. To the homogenates was added 125 μl of 10% NP-40 solution, and the mixture was then centrifuged at 12,000×g for 1 min. Pellets were washed once with 100 μl of the above buffer and 12.5 μl of 10% NP-40, centrifuged, resuspended in 50 μl of 20 mM cool HEPES buffer (pH 7.8) containing 420 mM NaCl, 1.5 mM MgCl2, 0.2 mM EDTA, 0.5 mM DTT, 0.2 mM PMSF, and 20% glycerol, and centrifuged at 12000×g for 5 min at 4° C. The supernatant containing nuclear proteins was collected and assayed protein concentration and stored at −70° C. […] The binding reaction was carried out in 25 μl of the mixture containing 5 μl of incubation buffer [10 mM Tris-HCl (pH 7.5), 100 mM NaCl, 1 mM DTT, 1 mM EDTA, 4% (v/v) glycerol, and 0.1 mg/ml sonicated salmon sperm DNA], 10 μg of nuclear extracts, and 100,000 cpm of the labeled probe. After 50 min of incubation at room temperature, the samples and comparative samples mixed with 3 μl of loading buffer (250 mM Tris-HCl (pH7.5), 0.2% bromophenol blue, 40% glycerol) were electrophoresed through a 6% non-denaturing polyacrylamide gel at 150 V for 2 hrs. Finally, the gel was dried and exposed to X-ray film.
# NF-κB = details: for binding activity of NF-κB induced by cisplatin: liver, oral pretreatment before cisplatin
# Protocol: as §1, §2, §3
# ICR mice [1] = assay: Serum biochemical parameters (GPT, GOT, BUN, creatinine) in cisplatin-treated mice; format: in vivo
# Protocol: as §2
# Blood samples obtained from heart were kept at room temperature for 2 h, centrifuged at 3000 rpm for 10 minutes to obtain sera, and stored at low temperature for analyzing proteins. GPT (Glutamate-Pyruvate Transaminase), GOT (Glutamate-Oxaloacetate Transaminase), blood urea nitrogen (BUN), and creatinine from the serum were measured.
# The principle is following: α-ketoglutaric acid+alanine→glutamate+pyruvate. Pyruvate formed by GPT enzyme in said reaction is reacted with 2,4-dinitrophenylhydrazine and the intensity of color formed by the resulting reaction is related to enzymatic activity. The absorbance was determined at 505 nm. The reagents for determining GPT and GOT were purchased from Sigma chemical Co. (St. Louis, U.S.A.). Because hemolyzed serum contains a high level of GOT and GPT compared to normal serum, only unhemolyzed serum should be used as much as possible. The separated serum samples were stored at 4° C. and used within 5 days because the activity of GPT and GOT might decrease after 5 days at low temperature.
# 1 ml alanine-α-KG substrate was added to test tube and was pre-warmed at 37° C. for 2-3 minutes. 0.2 ml serum samples was added to each tube and incubated at 37° C. for 30 minutes in water bath. After that, 1 ml 2,4-dinitrophenylhydrazine was added and incubated at room temperature for 20 minutes. 10 ml 0.4N NaOH solution was added to each tube and was mixed well. After that, the GPT absorbance of each tube was read comparing with distilled water. In case of GOT determination, 1 ml aspartate-α-KG substrate was pre-warmed at 37° C. for 2-3 minutes, and 0.2 ml serum samples were added to each tube and incubated at 37° C. for 60 minutes, and the absorbance was read.
# Through a kit for assaying blood urea nitrogen, Ammonia (NH3) formed by hydrolysis of urea was measured by the absorbance at 570 nm.
# 0.5 ml urease solution was added to test tube and mixed with 10 μl serum sample, and incubated in water bath at 37° C. for 5-10 minutes. 1 ml phenol nitroprusside solution and 1 ml alkaline hypochlorite solution were added to the tube and mixed gentlely, and 5 ml distilled water was added. After that, the absorbance of the reaction was measured comparing with distilled water as a control. The reagents for determining urea nitrogen were purchased from Sigma chemical Co. (St. Louis, U.S.A.) and standard calibration curve was used.
# Standard calibration curve was used.
# 3 ml alkaline picrate solution and 0.3 ml serum sample were mixed well at 37° C. for 20 minutes and the absorbance (A1) was measured. Distilled water was used for a negative control. 0.1 ml acid solution (mixture of sulfuric acid and acetic acid) was added to each tube and incubated in water bath at 37° C. for 5 minutes. After that, the absorbance (A2) was read with distilled water as a negative control. Absorbance of the sample for determining the content of creatinine is absorbance (A1) minus absorbance (A2) according to standard calibration curve. The reagents for determining creatinine were purchased from Sigma chemical Co. (St. Louis, U.S.A.)
# iNOS = assay: Semiquantitative RT-PCR of liver, iNOS mRNA expression; format: in vivo, mice; details: for induction of iNOS mRNA expression by cisplatin: pretreatment before cisplatin
# Protocol: (§4) The mRNA expression levels of NF-κB-dependent genes, COX-2 and iNOS, were evaluated by semiquantitative RT-PCR using specific primer sets. β-actin and GAPDH were used as control.
# as §2
# ICR mice [2] = assay: Kidney and spleen weight relative to body weight in cisplatin-treated mice; format: in vivo; details: for specific gravity of kidney: oral pretreatment for 4 days before cisplatin injection, versus cisplatin only
# Protocol: Cisplatin was intraperitoneally injected in mice. After some time passed, body weights of the mice were checked and induction of toxicity was confirmed. Blood was gotten from the heart of etherized mouse, and biochemical markers related to the induction of hepatotoxicity and nephrotoxicity were evaluated, and the kidney and spleen were separated and weighed for comparison.
# Changes of specific gravity of kidney were also measured to evaluate suppressing effects of xanthorrhizol on nephrotoxicity induced by cisplatin.
# as §2
# COX-2 = assay: Semiquantitative RT-PCR of liver, COX-2 mRNA expression; format: in vivo, mice; details: for cisplatin-induced COX-2 mRNA expression: pretreatment 200 mg/kg before cisplatin
# Protocol: as §4, §2
# Kin = details: mouse, in vivo
# Protocol: After that, powdered liver tissues were homogenized using TRIzol™ reagent (Life technologies, Austria). The homogenized samples were incubated for 5 min at room temperature to permit the complete dissociation of nucleoprotein complexes. After the addition of 0.2 volume of chloroform, samples were shaken vigorously for 15 seconds, incubated for 2-3 min, and centrifuged at 12000×g for 15 min at 4° C. Total RNA in the upper aqueous phase was precipitated by mixing with an equal volume of isopropanol. The mixtures were incubated for 10 min at 4° C. and centrifuged at 12000×g for 10 min at 4° C. Total RNA pellet was washed with 75% ethanol, dried, and dissolved in RNase free water. To prevent the contamination with chromosomal DNA, total RNA samples were incubated with 10 units of DNase I (GenHunter Corp., Nashville, USA) at 37° C. for 30 min, and then DNA-free RNA was isolated using TRIzol reagent. The concentration and purity of total RNA and DNase-I-treated total RNA were calculated with absorbance at 260 and 280 nm.
# DDRT-PCR (differential display reverse transciption-polymerase chain reaction) was performed using the RNAimage kit (GenHunter Corp., Nashville, USA). […]
# ClpX = assay: DDRT-PCR and semiquantitative RT-PCR of liver, ClpX mRNA expression; format: in vivo, mice
# Streptococcus mutans = details: Hwang 2000; cited from earlier work
# rat uterine = details: Ponce-Monter et al. 1999; cited from earlier work
# [3] = cisplatin 45 mg/kg i.p. alone, 16 h after injection
# [4] = administration of cisplatin alone
# [5] = cisplatin 45 mg/kg i.p. alone (corn oil orally 4 days), 16 h after injection
# [6] = liver, oral pretreatment before cisplatin
# [7] = 200 mg/kg per day orally 4 days, then cisplatin 45 mg/kg i.p., 16 h
# [8] = 100 mg/kg per day orally 4 days, then cisplatin 45 mg/kg i.p., 16 h
# [9] = 200 mg/kg per day orally 4 days, then cisplatin 45 mg/kg i.p., 16 h, listed as xanthorrhizol
# Protocol for CP: Each example group consisted of 10 ICR mice (5 weeks, male). […] Only the corn oil was dosed orally as a negative control. […] Mice were weighed 16 h after the injection, killed under ether anesthesia and blood and liver samples were collected. The kidney and spleen were separated and weighed, respectively.
# After that, powdered liver tissues were homogenized using TRIzol™ reagent (Life technologies, Austria). The homogenized samples were incubated for 5 min at room temperature to permit the complete dissociation of nucleoprotein complexes. After the addition of 0.2 volume of chloroform, samples were shaken vigorously for 15 seconds, incubated for 2-3 min, and centrifuged at 12000×g for 15 min at 4° C. Total RNA in the upper aqueous phase was precipitated by mixing with an equal volume of isopropanol. The mixtures were incubated for 10 min at 4° C. and centrifuged at 12000×g for 10 min at 4° C. […] The concentration and purity of total RNA and DNase-I-treated total RNA were calculated with absorbance at 260 and 280 nm. […]
# Semiquantitative RT-PCR was performed to confirm the results from DDRT-PCR. To set the most suitable PCR amplification conditions, primers for interesting gene were determined by an on-line primer design program (Rozen and Skaletsky, 2000). […]
structure (smiles),measurement,setting,value
"N.N.[Cl][Pt][Cl] [Cisplatin, cis-diamminedichloroplatinum [II], reference compound]",S100A9 mRNA expression,S100A9; cisplatin alone,upregulated
same,CP mRNA expression,"CP; mouse, in vivo",downregulated
same,DNA-binding activity of AP-1,"AP-1; mouse, in vivo",decreased
same,DNA-binding activity of NF-κB,"NF-κB; mouse, in vivo",increased
same,BUN (blood urea nitrogen),ICR mice [1]; [3],144.4 ± 20.6 mg/dL
same,Creatinine,ICR mice [1]; [3],2.8 ± 0.7 mg/dL
same,GOT,ICR mice [1]; [3],517.1 ± 99.1 U/liter
same,GPT,ICR mice [1]; [3],185.8 ± 86.3 U/liter
same,iNOS mRNA expression,iNOS; [4],highly induced
same,K.W/B.W * 1000% (kidney weight/body weight),ICR mice [2]; [5],19.2 ± 1.6
same,S.W/B.W * 1000% (spleen weight/body weight),ICR mice [2]; [5],2.1 ± 0.4
same,COX-2 mRNA expression,COX-2; [4],highly induced
same,Kin mRNA expression,Kin,upregulated
same,ClpX mRNA expression,ClpX; cisplatin alone,downregulated
"COc1cc(/C=C/C(=O)CC(=O)/C=C/c2ccc(O)c(OC)c2)ccc1O [Curcumin, curcumin, reference compound]",CP mRNA expression level changed by cisplatin,"CP; liver, pretreatment before cisplatin",did not show that effect
same,suppressed binding activity of AP-1 (by cisplatin),AP-1; [6],did not change
same,binding activity of NF-κB induced by cisplatin,NF-κB,suppressed
same,BUN (blood urea nitrogen),ICR mice [1]; [7],138.6 ± 46.2 mg/dL
same,Creatinine,ICR mice [1]; [7],2.2 ± 1.4 mg/dL
same,GOT,ICR mice [1]; [7],381.6 ± 144.7 U/liter
same,GPT,ICR mice [1]; [7],158.4 ± 84.3 U/liter
same,induction of iNOS mRNA expression by cisplatin,iNOS,not suppressed
same,K.W/B.W * 1000% (kidney weight/body weight),ICR mice [2]; [7],17.2 ± 1.7
same,S.W/B.W * 1000% (spleen weight/body weight),ICR mice [2]; [7],2.0 ± 0.1
same,specific gravity of kidney,ICR mice [2],decreased specific gravity of kidney at the level similar to that of the control group
same,cisplatin-induced COX-2 mRNA expression,COX-2,returned the cisplatin-induced COX-2 mRNA expression to initial level
"CC(C)=CCC[C@@H](C)c1ccc(C)c(O)c1 [Xanthorrhizol, xanthorrhizol]",S100A9 mRNA expression level changed by cisplatin,S100A9; pretreatment before cisplatin,reversed
same,recovery of the binding activity of AP-1 suppressed by cisplatin,AP-1; [6],about 50%
same,binding activity of NF-κB induced by cisplatin,NF-κB,suppressed
same,BUN (blood urea nitrogen),ICR mice [1]; [8],145.2 ± 23.5 mg/dL
same,Creatinine,ICR mice [1]; [8],2.0 ± 1.1 mg/dL
same,GOT,ICR mice [1]; [8],296.5 ± 74.5 U/liter
same,GPT,ICR mice [1]; [8],134.2 ± 58.5 U/liter
same,BUN (blood urea nitrogen),ICR mice [1]; [7],50.9 ± 16.7 mg/dL
same,Creatinine,ICR mice [1]; [7],0.8 ± 0.5 mg/dL
same,GOT,ICR mice [1]; [7],201.4 ± 50.3 U/liter
same,GPT,ICR mice [1]; [7],106.0 ± 28.3 U/liter
same,BUN (blood urea nitrogen),ICR mice [1]; [9],significantly decreased
same,Creatinine,ICR mice [1]; [9],significantly decreased
same,GPT,ICR mice [1]; [9],significantly reduced
same,induction of iNOS mRNA expression by cisplatin,iNOS,strongly suppressed
same,K.W/B.W * 1000% (kidney weight/body weight),ICR mice [2]; [8],17.5 ± 2.9
same,S.W/B.W * 1000% (spleen weight/body weight),ICR mice [2]; [8],2.1 ± 0.4
same,K.W/B.W * 1000% (kidney weight/body weight),ICR mice [2]; [7],14.6 ± 0.9
same,S.W/B.W * 1000% (spleen weight/body weight),ICR mice [2]; [7],2.0 ± 0.3
same,specific gravity of kidney,ICR mice [2],decreased specific gravity of kidney at the level similar to that of the control group
same,cisplatin-induced COX-2 mRNA expression,COX-2,returned the cisplatin-induced COX-2 mRNA expression to initial level
same,antibacterial effect against oral bacteria such as Streptococcus mutans,Streptococcus mutans,antibacterial effect
same,tonic contraction of rat uterine,rat uterine,dose-dependently limits tonic contraction
same,ClpX mRNA expression level changed by cisplatin,ClpX; pretreatment before cisplatin,maintained the ClpX mRNA expression in the same level as without administrating with cisplatin; also recorded: reversed
